Results taken from patent US20250228832A1, “METHODS FOR TREATING DISORDERS AMELIORATED BY MUSCARINIC RECEPTOR ACTIVATION” (KARUNA THERAPEUTICS, INC., priority 2022, published 2025).
Read-outs that look alike come from different tables or passages of the source.

Biological target: T1, human M1 receptor (Homo sapiens, UniProt P11229)
T1 construct: expressed in transfected cells
T1 sequence (P11229 1-460): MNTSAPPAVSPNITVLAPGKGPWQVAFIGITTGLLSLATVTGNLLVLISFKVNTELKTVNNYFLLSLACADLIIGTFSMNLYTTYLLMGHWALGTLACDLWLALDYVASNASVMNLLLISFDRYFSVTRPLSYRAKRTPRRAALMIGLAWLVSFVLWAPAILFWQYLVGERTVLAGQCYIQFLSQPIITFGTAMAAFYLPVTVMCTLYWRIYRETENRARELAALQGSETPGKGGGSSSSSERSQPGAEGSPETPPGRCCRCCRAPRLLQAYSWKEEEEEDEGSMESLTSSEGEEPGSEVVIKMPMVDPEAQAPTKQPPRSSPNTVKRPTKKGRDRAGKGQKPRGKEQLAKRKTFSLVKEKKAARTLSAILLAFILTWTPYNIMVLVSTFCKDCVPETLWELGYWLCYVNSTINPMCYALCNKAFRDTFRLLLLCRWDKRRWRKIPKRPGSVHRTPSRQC
Test: HTRF IP-One curve shift assay, M1
Type: cell-based
Description: HTRF IP-One assays were performed using frozen cell aliquots prepared from CHO-K1 cell lines stably expressing human M1, M3, or M5 receptors. Cells were frozen following typical cell freezing protocols. […] Dissociated cells were quenched in full media and collected by centrifugation at 290×g for 5 min. […] 1 mL aliquots of cells were dispensed into cryovial tubes and frozen in a controlled rate cryo-freezer container at −80° C. Cells were stored at −80° C. (or in liquid nitrogen if stored for at least six months) until the day of the assay.
On the day before the assay, frozen cells were rapidly thawed in a 37° C. water bath, brought up in 20 mL of full media, and collected via centrifugation at 290×g for 5 min. […] Next, […] of cells (10,000 cells/well) were dispensed into 384-well coming plates in triplicate. Cells were incubated overnight in a 37° C., 5% CO2 cell incubator.
Then, 2 μL of test compounds were added to the cells and incubated for 10 min at 37° C. in a 5% CO2 cell incubator. Next, 2 μL of diluted agonists serially diluted in assay buffer at 7× final assay concentration was added to assay plates. Finally, assay plates were incubated for two hours at 37° C. in a 5% CO2 cell incubator.
Six μL of IP-1 detection reagents (IP-One Gq HTRF kit, Cisbio Cat #62IPAPEJ) were dispensed to the cells. First, the plates were incubated for two hours at room temperature (IP-One detection reagents were made according to Cisbio protocol). Then, plates were read on an Envision plate reader following the Cisbio guidelines.
Raw data for all assays was transmitted directly from plate readers into the Beacon database for processing. All assay plates contained positive and negative control wells for data normalization and scaling. […] All control wells contained DMSO at a final assay concentration that matched the test compound wells.
Counts from the standard curve wells were used to generate a sigmoidal standard curve, which was used to transform the raw counts from each well on the plate (scaling control wells and compound wells) into a pmol/well IP1 value.

[1] = Emraclidine concentration 41.2 nM, read-out: Emax
[2] = Emraclidine concentration 123 nM, read-out: Emax
[3] = Emraclidine concentration 370 nM
[4] = Emraclidine concentration 1110 nM, read-out: Emax
[5] = Emraclidine concentration 3330 nM, read-out: Emax
[6] = MK-4710 concentration 41.2 nM, read-out: Emax
[7] = MK-4710 concentration 123 nM, read-out: Emax
[8] = MK-4710 concentration 1110 nM, read-out: Emax
[9] = MK-4710 concentration 3330 nM, read-out: Emax

Compound | EC50 (Emraclidine concentration 0 nM) [nM] | Emax (Emraclidine concentration 0 nM) [%] | Emax [1] [%] | Emax [2] [%] | Emax at […] [3] [%] | Emax [4] [%] | Emax [5] [%] | Emax at […] (Emraclidine concentration […]) [%] | α (cooperativity, affinity shift) (M4 PAM Emraclidine) | β (cooperativity, efficacy shift) (M4 PAM Emraclidine) | τ (agonist pharmacology) (M4 PAM Emraclidine) | α (cooperativity, affinity shift) (M4 PAM MK-4710) | β (cooperativity, efficacy shift) (M4 PAM MK-4710) | τ (agonist pharmacology) (M4 PAM MK-4710) | EC50 (MK-4710 concentration 0 nM) [nM] | Emax [6] [%] | Emax [7] [%] | Emax at […] (MK-4710 concentration 370 nM) [%] | Emax [8] [%] | Emax [9] [%] | also measured
CC1OC2(CS1)CN1CCC2CC1 (centres unmarked) [cevimeline, Cevimeline, reference compound] | 1190 | 73.6 | 81.4 | 90.4 | 95.1 | 100 | 103 | 73.2 | 1.0 | 1.2 | 0.0 | 3.0 | 0.5 | 0.0 | 1750 | 102 | 97.1 | 92.3 | 83.6 | 69.9 | Emax (MK-4710 concentration 0 nM): 86.1%; Emax at […] (MK-4710 concentration […]): 88.8%
CCCCCCCOc1nsnc1C1=CCCCN1C [KTX-593, 3-(heptyloxy)-4-(1-methyl-1,4,5,6-tetrahydropyridin-2-yl)-1,2,5-thiadiazole] | 10.1 | 77.8 | 83.1 | 85.4 | 88.4 | 85.2 | 87.8 | 83.9 | 3.2 | 0.8 | 0.0 | 4.1 | 0.6 | 0.0 | 8.7 | 82.7 | 79.9 | 78.3 | 76.8 | 76.7 | Emax (MK-4710 concentration 0 nM): 83.7%; EC50 (MK-4710 concentration 41.2 nM): 7.6 nM; EC50 (MK-4710 concentration 123 nM): 8.3 nM; EC50 (MK-4710 concentration 370 nM): 6.5 nM; EC50 (MK-4710 concentration 1110 nM): 6.8 nM; EC50 (MK-4710 concentration 3330 nM): 5.3 nM; EC50 (MK-4710 concentration […]): 8.8 nM; Emax at […] (MK-4710 concentration […]): 77.6%
CCCCCOc1nsnc1C1=CCCCN1C [KTX-517, 3-(1-methyl-1,4,5,6-tetrahydropyridin-2-yl)-4-(pentyloxy)-1,2,5-thiadiazole] | 7 | 61.6 | 65.6 | 66.5 | 71.3 | 72.8 | 79 | 61 | 11.3 | 2.2 | 0.0 | 3.5 | 0.6 | 0.0 | 8.4 | 81.5 | 79.6 | 80.9 | 86.1 | 85.8 | Emax at […] (MK-4710 concentration […]): 77.8%
